Measurements: BigSolDB 2.1

Cc1[nH]nc2cc([N+](=O)[O-])ccc12
solubility (mole fraction)
Settings | in DMF | in THF | in acetone | in acetonitrile | in ethanol | in ethyl acetate | in n-propanol | in water
278.15 K | 0.149 | 0.0579 | 0.0251 | 0.0093 | 0.0042 | 0.016 | 0.0051 | 2.1e-05
283.15 K | 0.161 | 0.0615 | 0.0295 | 0.0109 | 0.0051 | 0.0183 | 0.0061 | 2.7e-05
288.15 K | 0.177 | 0.0671 | 0.0336 | 0.0123 | 0.0059 | 0.021 | 0.0073 | 3.6e-05
293.15 K | 0.195 | 0.0726 | 0.0382 | 0.0139 | 0.007 | 0.0232 | 0.0084 | 4.71e-05
298.15 K | 0.215 | 0.0781 | 0.0433 | 0.0156 | 0.0083 | 0.0255 | 0.0096 | 6.31e-05
303.15 K | 0.236 | 0.0845 | 0.0481 | 0.0174 | 0.01 | 0.0295 | 0.0108 | 8.01e-05
308.15 K | 0.259 | 0.0903 | 0.0538 | 0.019 | 0.012 | 0.0328 | 0.012 | 9.91e-05
313.15 K | 0.283 | 0.097 | 0.0595 | 0.0206 | 0.014 | 0.0363 | 0.0136 | 0.000123
318.15 K | 0.309 | 0.105 | 0.0661 | 0.0222 | 0.0164 | 0.0394 | 0.0155 | 0.000147
323.15 K | 0.337 | 0.113 | 0.0738 | 0.0239 | 0.0194 | 0.043 | 0.0176 | 0.000179
328.15 K | 0.371 | 0.123 | 0.0829 | 0.0254 | 0.0227 | 0.0456 | 0.0204 | 0.000218
